Measurements reported in patent US20130287807A1, “COMPOUNDS FOR TREATING SYMPTOMS ASSOCIATED WITH PARKINSON'S DISEASE” (priority 2008, published 2013).
Entries after “also recorded” stand apart in the source; their conditions may differ. Ends that are not written are not given here.

Columns and labels:
[1] = test system: monoclonal antibody MV-002; test: In vitro binding assay (ELISA), BSA-coupled peptides, parental antibody MV-002; parameters: species or system C57/B16 mice; details: Table 1 (MV-002); peptide-BSA on plate, compared to original epitope
Experimental: Peptides derived from Phage Display as well as variants thereof were coupled to BSA and bound to ELISA plates (1 μM; as indicated in the respective figures) and subsequently incubated with the monoclonal antibody that was used for the screening procedure to analyse binding capacity of identified peptides.
Legend to Table 1: the binding capacity is coded by the following binding code: 1:X describes the dilution factor of the parental AB. Ac- . . . indicates acetylated AA.

[2] = test system: monoclonal antibody (DAEFRH-peptide-specific); test: Inhibition assay (ELISA): mimotope peptides compete with plate-bound original epitope DAEFRH for recognition by the monoclonal antibody; format: binding, Mice; parameters: key to inhibition (s/m/—): s: strong inhibition; m: moderate inhibition; —: -: no inhibition; details: for inhibition of binding of the monoclonal antibody to the original epitope: competition ELISA, plate-bound DAEFRH-C-BSA, text to FIGS. 2-9; for inhibition (s/m/—): peptide lists of Example 4; for Inhibitory capacity of mimotopes: summary Tables 1 and 2 (Examples 2, 3)
Text: Mice are vaccinated with the 6mer peptide DAEFRH (natural N-terminal Aβ42 sequence) linked to the protein bovine serum albumin BSA (to make use of the hapten-carrier-effect), emulsified in CFA (first injection) and IFA (booster injections). DAEFRH-peptide-specific, antibody-producing hybridomas are detected by ELISA (DAEFRH-peptide-coated ELISA plates).
FIGS. 2 and 3 describe the results of inhibition assays performed with mimotope peptides included in and obtained from the 5 libraries (as described in WO 2004/062556). The mimotope peptides compete with the original epitope for recognition by the monoclonal antibody. Original epitope and mimotope peptides contain an additional C at the C-terminus for coupling to a protein carrier (if desired).
(§1) After blocking with PBS/BSA 1% (200 μl/well, 12 h, 4° C.), the plates are washed 3× times with PBS/Tween. Then, biotinylated monoclonal antibody (1:2000, 50 μl/well) and peptides (50 μl/well) at 50, 5, 0.5, 0.05, 0.005, and 0.0005 μg/ml are added for 20 min. at 37° C. The plates are washed 3× times with PBS/Tween and are incubated with horseradish peroxidase (HRP)-labeled streptavidin (100 μl/well, 30 min, RT). The plates are washed 5× times with PBS/Tween and are incubated with ABTS+H2O2(0.1% w/v, 10 to 45 min) and the reaction is stopped with citric acid followed by photometric evaluation (wavelength 405 nm).
as §1, with “different concentrations” for “50, 5, 0.5, 0.05, 0.005, and 0.0005 μg/ml”, “ABTS+H2O2 (0.1%” for “ABTS+H2O2(0.1%”
as §1, with “different concentrations” for “50, 5, 0.5, 0.05, 0.005, and 0.0005 μg/ml”

[3] = biological target: monoclonal antibody MV-001; test: ELISA on peptide-BSA; code 3 = strong binding, OD halfmax 1:>20000
[4] = biological target: monoclonal antibody MV-001; test: ELISA on peptide-BSA; code 2 = medium binding, OD halfmax 1:4000-20000

## AGEIYFERC [p4806]
[1]
  Binding Capacity: 1 (weak binding :<40000)

## AIPLFVMC [p4682]
[1]
  Binding Capacity: 1 (weak binding :<40000)

## Ac-GEIYFERC [p4804]
[1]
  Binding Capacity: 2 (medium binding :40000-320000)

## CGEIYFER [p4807]
[1]
  Binding Capacity: 1 (weak binding :<40000)

## GDLKFPLC [p4683]
[1]
  Binding Capacity: 3 (strong binding :>320000)

## GEIRFALC [p4678]
[1]
  Binding Capacity: 3 (strong binding :>320000)

## GEIRFELC [p4796]
[1]
  Binding Capacity: 2 (medium binding :40000-320000)

## GELFFEKC [p4795]
[1]
  Binding Capacity: 2 (medium binding :40000-320000)

## GELFFPKC [p4685]
[1]
  Binding Capacity: 3 (strong binding :>320000)

## GELQFPPC [p4672]
[1]
  Binding Capacity: 3 (strong binding :>320000)

## GELYFRAC [p4677]
[1]
  Binding Capacity: 3 (strong binding :>320000)

## GEMQFFIC [p4676]
[1]
  Binding Capacity: 3 (strong binding :>320000)

## GEMWFALC [p4671]
[1]
  Binding Capacity: 3 (strong binding :>320000)

## GMIVFPHC [p4679]
[1]
  Binding Capacity: 3 (strong binding :>320000)

## GQIIFQSC [p4668]
[1]
  Binding Capacity: 2 (medium binding :40000-320000)

## GQIKFAQC [p4694]
[1]
  Binding Capacity: 3 (strong binding :>320000)

## GQILFPVC [p4684]
[1]
  Binding Capacity: 3 (strong binding :>320000)

## GQIMFPRC [p4686]
[1]
  Binding Capacity: 3 (strong binding :>320000)

## GQIQFPLC [p4697]
[1]
  Binding Capacity: 3 (strong binding :>320000)

## GQIRFDHC [p4669]
[1]
  Binding Capacity: 3 (strong binding :>320000)

## GQIWFISC [p4666]
[1]
  Binding Capacity: 1 (weak binding :<40000)

## GQLKFPFC [p4690]
[1]
  Binding Capacity: 3 (strong binding :>320000)

## GSLFFWPC [p4688]
[1]
  Binding Capacity: 2 (medium binding :40000-320000)

## GTIFFRDC [p4692]
[1]
  Binding Capacity: 1 (weak binding :<40000)

## GTLIFHHC [p4695]
[1]
  Binding Capacity: 2 (medium binding :40000-320000)

## HMRMYFEC [p4687]
[1]
  Binding Capacity: 3 (strong binding :>320000)

## KLPLFVMC [p4691]
[1]
  Binding Capacity: 1 (weak binding :<40000)

## QLPLFVLC [p4700]
[1]
  Binding Capacity: 1 (weak binding :<40000)

## SGEIYFERC [p4805]
[1]
  Binding Capacity: 1 (weak binding :<40000)

## SWEFRLY [Peptide 4018]
[2]
  inhibition of binding of the monoclonal antibody to the original epitope: strongly block epitope recognition
  inhibition (s/m/—): s

## SWEFRNP [Peptide 4017]
[2]
  inhibition of binding of the monoclonal antibody to the original epitope: strongly block epitope recognition
  inhibition (s/m/—): s

## SWFRNP [Peptide 4019]
[2]
  inhibition of binding of the monoclonal antibody to the original epitope: not inhibitory
  inhibition (s/m/—): —

## VPTSALA [Peptide 4037]
[2]
  inhibition of binding of the monoclonal antibody to the original epitope: not inhibitory
  inhibition (s/m/—): —

## WHWSWR (WHWSWRC) [Peptide 4004]
[2]
  inhibition of binding of the monoclonal antibody to the original epitope: not able to inhibit
  Inhibitory capacity of mimotopes: none

## YREFFI (YREFFIC) [Peptide 3003]
[2]
  inhibition of binding of the monoclonal antibody to the original epitope: not able to inhibit
  Inhibitory capacity of mimotopes: none

## YREFRI (YREFRIC) [Peptide 3004]
[2]
  inhibition of binding of the monoclonal antibody to the original epitope: block epitope recognition; also recorded: only inhibitory at a high concentration (50 μg/ml)
  Inhibitory capacity of mimotopes: weak

## APIQFRHC [p4750]
[3]
  OD halfmax 1:X (dilution factor of the parental antibody at half-maximal OD) (dilutionfactor(1:x)): > 20000

## QLFKHSPC [p4747]
[3]
  OD halfmax 1:X (dilution factor of the parental antibody at half-maximal OD) (dilutionfactor(1:x)): > 20000

## EFLRHTLC [p4722]
[3]
  OD halfmax 1:X (dilution factor of the parental antibody at half-maximal OD) (dilutionfactor(1:x)): > 20000

## QVMRHHAC [p4711]
[4]
  OD halfmax 1:X (dilution factor of the parental antibody at half-maximal OD) (dilutionfactor(1:x)): 4000 to 20000

## GEMRHQPC [p4702]
[3]
  OD halfmax 1:X (dilution factor of the parental antibody at half-maximal OD) (dilutionfactor(1:x)): > 20000

## SEFSHSSC [p4712]
[3]
  OD halfmax 1:X (dilution factor of the parental antibody at half-maximal OD) (dilutionfactor(1:x)): > 20000

## SQSYFKHC [p4755]
[3]
  OD halfmax 1:X (dilution factor of the parental antibody at half-maximal OD) (dilutionfactor(1:x)): > 20000

## VELRHSRC [p4704]
[4]
  OD halfmax 1:X (dilution factor of the parental antibody at half-maximal OD) (dilutionfactor(1:x)): 4000 to 20000

## NSSELRHC [p4752]
[3]
  OD halfmax 1:X (dilution factor of the parental antibody at half-maximal OD) (dilutionfactor(1:x)): > 20000

## APMYFPHC [p4717]
[4]
  OD halfmax 1:X (dilution factor of the parental antibody at half-maximal OD) (dilutionfactor(1:x)): 4000 to 20000

## LHIPFRHC [p4726]
[3]
  OD halfmax 1:X (dilution factor of the parental antibody at half-maximal OD) (dilutionfactor(1:x)): > 20000

## YSMRHDAC [p4705]
[4]
  OD halfmax 1:X (dilution factor of the parental antibody at half-maximal OD) (dilutionfactor(1:x)): 4000 to 20000

## SELRHSTC [p4744]
[3]
  OD halfmax 1:X (dilution factor of the parental antibody at half-maximal OD) (dilutionfactor(1:x)): > 20000

## NELRHSTC [p4701]
[3]
  OD halfmax 1:X (dilution factor of the parental antibody at half-maximal OD) (dilutionfactor(1:x)): > 20000

## SNFRHSVC [p4749]
[3]
  OD halfmax 1:X (dilution factor of the parental antibody at half-maximal OD) (dilutionfactor(1:x)): > 20000

## YEFRHAQC [p4748]
[3]
  OD halfmax 1:X (dilution factor of the parental antibody at half-maximal OD) (dilutionfactor(1:x)): > 20000

## DTYFPRSC [p4703]
[4]
  OD halfmax 1:X (dilution factor of the parental antibody at half-maximal OD) (dilutionfactor(1:x)): 4000 to 20000

## AANYFPRC [p4706]
[4]
  OD halfmax 1:X (dilution factor of the parental antibody at half-maximal OD) (dilutionfactor(1:x)): 4000 to 20000

## SNSEFRRC [p4743]
[3]
  OD halfmax 1:X (dilution factor of the parental antibody at half-maximal OD) (dilutionfactor(1:x)): > 20000

## THMEFRRC [p4745]
[3]
  OD halfmax 1:X (dilution factor of the parental antibody at half-maximal OD) (dilutionfactor(1:x)): > 20000

## ATPLFRHC [p4723]
[3]
  OD halfmax 1:X (dilution factor of the parental antibody at half-maximal OD) (dilutionfactor(1:x)): > 20000

## TYFSHSLC [p4718]
[4]
  OD halfmax 1:X (dilution factor of the parental antibody at half-maximal OD) (dilutionfactor(1:x)): 4000 to 20000

## SAGSFRHC [p4710]
[3]
  OD halfmax 1:X (dilution factor of the parental antibody at half-maximal OD) (dilutionfactor(1:x)): > 20000

## ATFRHSPC [p4716]
[4]
  OD halfmax 1:X (dilution factor of the parental antibody at half-maximal OD) (dilutionfactor(1:x)): 4000 to 20000

## SSSFFPRC [p4708]
[4]
  OD halfmax 1:X (dilution factor of the parental antibody at half-maximal OD) (dilutionfactor(1:x)): 4000 to 20000

## ELFKHHLC [p4714]
[3]
  OD halfmax 1:X (dilution factor of the parental antibody at half-maximal OD) (dilutionfactor(1:x)): > 20000
